# Assay results from a melting point compilation (Tetko et al.; mined from patent text by program, amines drawn as free bases though some values may be those of a salt).
row,SMILES,melting point [°C]
1,Cc1nnc2n1-c1ccc(C#C[Si](C)(C)C)cc1C(c1ccccc1)=NC2,229 to 233
2,CN1C(=O)C(F)ON=C(c2ccccc2)c2cc(Cl)ccc21 (stereo not drawn),218 to 220
3,Cc1ccc2nc(CCl)n3cnnc3c2c1,175
4,CC(=O)c1cc(C[C@H](NC(=O)c2c(Cl)cccc2Cl)C(=O)O)ccc1-c1ccccc1,109 to 111
5,CCOC(=O)c1cc(Cl)c(-n2ncc(C)n2)c(Cl)c1,136 to 138
6,COc1ccccc1Sc1c(Cl)nc(C)nc1Cl,140
7,O=c1c2c(O)cccc2[nH]c2c([N+](=O)[O-])ccc(Cl)c12,265 to 267
8,C[C@@H](n1ccn(-c2ccc(-n3nccn3)cc2)c1=O)[C@](O)(Cn1cncn1)c1ccc(F)cc1F,182 to 185
9,Clc1ccc2ccc(COc3ccc4c(c3)C(SCCc3nnn[nH]3)c3ccccc3CO4)nc2c1 (stereo not drawn),142 to 147
10,CNc1nc(C)c(-c2ccnc(Nc3cccc(CNC(C)=O)c3)n2)s1,253 to 255
11,O=C(c1cc2cc3oc(=O)[nH]c3cc2o1)N1CCC(Cc2ccccc2)CC1,205 to 210
12,Cc1ccccc1C=CCN1CCc2nc(N)sc2CC1,112 to 115
13,COc1ccccc1C1(N[C@H](CO)c2ccccc2)C(=O)Nc2ccc(Cl)cc21 (stereo partly drawn),172 to 173
14,CC(O)c1cc(Br)c(N)c(CN(C)C)c1 (stereo not drawn),69 to 72
15,CC(=O)c1cccc(-c2cnn3c(-c4cccc(NC(=O)CC(C)C)c4)ccnc23)c1,190 to 192
16,Nc1c(-c2ccccc2)nn2c1ccc1ccccc12,255 to 258
17,O=C(O)COc1cccc(-c2c3ccccc3c(Br)c3sc4ccccc4c23)c1,180 to 181
18,C=CCN1CCC=C(c2csc(N)n2)C1,129 to 132
19,Cc1ncn(-c2ccc(NC(=O)OCc3ccccc3)cc2F)n1,153 to 155
20,OCCCNC1=Nc2ccccc2C1(O)c1cccc(Cl)c1 (stereo not drawn),164 to 165
21,O=C(C=C(c1ccccc1)c1ccc(Cl)cc1)Nc1ccc(C(=O)O)cc1,220 to 223
22,NC(C=Cc1cccs1)=NO,92
23,O=C(NCCNC(=O)C1CCN(c2c(Cl)cncc2Cl)CC1)c1ccccc1,209 to 211
24,c1ccc(-c2noc(-c3cccc4ccccc34)n2)nc1,132 to 136
25,O=C(O)c1cc(F)cc(-c2cccc3cc(Cc4cccc(C(F)(F)F)c4)sc23)c1,140 to 142
26,O[C@H]1[C@H](O)CS[C@H]1n1cnc2c(Cl)ncnc21,192 to 193
27,CCCn1nc(-c2ccc(O)c(Cl)c2)c2cccc(Cl)c21,145 to 146

row,SMILES,melting point [°C]
1,O=c1c2ccc(F)cc2nc(CSc2ncnc3[nH]cnc23)n1-c1ccccc1Cl,151 to 154
2,Clc1ccc(CC2(c3ccccc3)OCC(CN3CCCCC3)O2)cc1 (stereo not drawn),58
3,COc1cc(-c2oc3ccccc3c(=O)c2OCC(O)CN2CCN(c3ccccc3)CC2)cc(OC)c1OC (stereo not drawn),170 to 171
4,CC(=O)N1CCC(Br)(C(=O)c2ccc(F)cc2)CC1,156 to 159
5,Cc1cccc2c1[C@@H]1CN(C)CC[C@@H]1CC2=O (relative stereo),> 220
6,CSC1=NC(=O)C(=C(C)c2cc(C(C)(C)C)c(O)c(C(C)(C)C)c2)S1,206 to 209
7,N[C@@H]1C(=C2OCc3ccccc32)[C@@H]2C[C@H]1C(=C1OCc3ccccc31)[C@H]2N,108
8,CCN1C[C@@H](O)[C@H](Sc2ccccc2Cl)C1 (relative stereo),90.5 to 92.5
9,O=C(O)C(Sc1nc2ccc(Cl)nc2s1)c1ccc(Cl)cc1 (stereo not drawn),144 to 146
10,CC(=O)c1c(NC(C)(C)C)nc(NC(C)(C)C)c(Br)c1C,99 to 100
11,CCC1(O)CC(=O)OCc2c1cc1n(c2=O)Cc2c-1nc1cc(F)c(F)cc1c2-c1ccccc1 (stereo not drawn),> 250
12,O=C(Nc1cc[nH]n1)c1c(F)cccc1F,201 to 204
13,CC(=O)OS(=O)(=O)OC(C)=O,228
14,Nc1c(Br)cc(S(N)(=O)=O)cc1C(F)(F)F,248 to 252
15,CCOC(=O)N1CCN(c2c(F)c(N)c3c(=O)c(C(=O)O)cn(C4CC4)c3c2F)C(C)C1 (stereo not drawn),220 to 225
16,O=C1NC2(CCCCC2)c2ccccc21,232 to 234
17,CC(C)c1nn(-c2ccc(C(F)(F)F)cc2)cc1CO,84 to 85
18,C=CCC1CC(c2c[nH]c(-c3ccc(F)cc3)c2-c2ccncc2)=CCN1C (stereo not drawn),178 to 180
19,CC(C)(C)OC(=O)C(=O)C=[N+]=[N-],100
20,O=C(c1ccc([N+](=O)[O-])cc1Cl)N1CCCCc2ccccc21,112 to 114
21,O=C(O)c1ccc2oc3c(c(=O)c2c1)CCCC3=Cc1ccccc1,284 to 286
22,CNC(=O)N1N=C(c2ccc([N+](=O)[O-])cc2)c2cc(OC)c(Br)cc2CC1C (stereo not drawn),224 to 226
23,CC(C)[C@H](NC(=O)NCc1cccnc1)C(=O)NC(Cc1ccccc1)C(O)C(Cc1ccccc1)NC(=O)[C@@H](NC(=O)OCc1ccccc1)C(C)C (stereo partly drawn),205 to 206
24,O=C(Nc1nccs1)c1nc(-c2ccc(N3CCC(N4CCOCC4)CC3)cc2)[nH]c1-c1ccc(Cl)cc1,165 to 170
25,N#CC(Cc1c[nH]cn1)(c1ccccc1)c1ccc(Br)cc1 (stereo not drawn),121 to 124
26,NCC1Cc2cc(-c3ccc(C(F)(F)F)cc3)cc(F)c2O1 (stereo not drawn),> 250
27,COc1ccc(C#CC(=Nc2ccc(OC)cc2)N2CCN(Cc3ccccc3)CC2)cc1,161

# Next, values leading:
row,melting point [°C],SMILES
1,110,COCCCN1CCC(CNC(=O)c2cc(Cl)c(N)c(OC)c2OC)C(O)C1 (stereo not drawn)
2,112 to 114,CC(CCc1ccc2c(c1)OCO2)NCC(O)c1cc(C(N)=O)cs1 (stereo not drawn)
3,214 to 216,Cc1nc(-n2ccc(OCc3cccnc3)cc2=O)sc1C(=O)NCc1ccccc1
4,69,CCC1CC(=O)N(Cc2ccc(NS(C)(=O)=O)cc2)N=C1c1ccc(OC)c(OC2CCCC2)c1 (stereo not drawn)
5,126 to 127,CCOC(=O)c1c(-c2ccccc2Cl)c2cc(CC)sc2[nH]c1=O
6,178 to 182,CS(=O)(=O)Nc1ccc(NC(=O)C(=O)N2CCC(Cc3ccc(F)cc3)CC2)cc1
7,92 to 95,Cc1ccc(F)c(C(C)Oc2ccc3nc(NC(=O)NCCN4CCOCC4)sc3c2)c1F (stereo not drawn)
8,157,O=C(O)[C@H]1CC(=O)N(c2ccc(OCc3cccc(F)c3)cc2)C1
9,159 to 160,O=C(COc1ccccc1)NC1C(=O)N(C(O)(Cc2ccccc2)C(=O)O)C1CI (stereo not drawn)
10,158 to 160,CC(C)c1ccc(N(Cc2ccc(N(C)C)cc2)C(=O)C2CCc3c(O)cccc32)cc1 (stereo not drawn)
11,116 to 118,CCCCCCNC(=O)CSc1nc(Cl)cc(Nc2cccc(C)c2C)n1
12,116 to 117,COc1ccc2c(c1)C(=O)C(Oc1cccnc1)CO2 (stereo not drawn)
13,61 to 63,CCOCCCOc1ccc2c(c1)C(N(C)S(C)(=O)=O)CC(C)(C)O2 (stereo not drawn)
14,127,CC(C)(C)OC(=O)N(Cc1ccccc1)S(N)(=O)=O
15,230 to 232,CS(=O)(=O)Cc1cccc(-c2nc(=O)c3ccccc3s2)n1
16,90 to 91,COc1ccc(Cl)c2nc(SCc3ccccc3)nn12
17,299 to 301,O=c1[nH]c2ncc(-c3cccc(-c4cn[nH]n4)c3)nc2n1CC1CCCCC1
18,116 to 118,CCOC(=O)C=Cc1cc(OCc2ccccc2)ccc1-c1ccc(-c2cccc(C(F)(F)F)c2)c(C=O)c1
19,152 to 153,COc1ccc(O)c(C(=O)N2CC(Oc3ccc(NC(=O)OC(C)(C)C)cc3)C2)c1
20,123 to 124,CC(=O)Nc1ccc(SCC(OS(C)(=O)=O)C(C)(C)C)cc1 (stereo not drawn)
21,159,Cc1cc([N+](=O)[O-])cc(C)c1NS(=O)(=O)CCSCCN
22,134 to 135,COC(=O)C1CNCCN1C(=O)c1cc(OC)c(OC)c(OC)c1 (stereo not drawn)

row,melting point [°C],SMILES
1,219 to 220,CCOC(=O)c1cn(-c2ccc(F)cc2F)c2nc(N3CCN(C(C)=O)CC3)c(F)cc2c1=O
2,140 to 143,CCCCC(=O)Nc1c(C(=O)c2ccccc2)[nH]c2cc(Cl)ccc12
3,66 to 67,Cc1cc(N(C)C)ccc1C=O
4,145 to 147,Cc1n[nH]c(C)c1[C@H](C)NC(=O)COc1cc(C(F)(F)F)c2c(-c3ccccc3)nn(C)c2n1
5,137 to 138,O=[N+]([O-])c1ccc(OC2(c3ccccc3)CCNCC2)cc1
6,172 to 174,Cc1ccc2c(c1)C1(CCN(CCCC(=O)c3ccc(F)cc3)C1)CC2O (stereo not drawn)
7,157 to 158,COC(=O)Cc1ccc(S(C)(=O)=O)c(S(C)(=O)=O)c1
8,188 to 190,Cc1ccccc1S(=O)(=O)NC(=O)c1ccc2c(ccn2Cc2cccc(NC(=O)OC3CCCC3)c2)c1
9,107 to 110,O=[N+]([O-])c1ccc2[nH]cc(CCCO)c2c1
10,154 to 155,COc1ccc(C2(C#N)CCC(=O)C(C(N)=O)C2)cc1OCCl (stereo not drawn)
11,86 to 87,Cc1cc(C)c2c(c1C)OC(C)(C)C2c1ccccc1 (stereo not drawn)
12,145 to 155,CC(=O)Nc1ccc(C(C)=NNc2ccc(C3=NNC(=O)CC3C)cc2)cc1 (stereo not drawn)
13,164,Cc1cccc(SCn2cc(Br)cnc2=O)c1
14,205 to 207,CS(=O)(=O)c1ccc(S(C)(=O)=O)nc1
15,153 to 159,CC(=O)NC[C@H]1CN(c2ccc(N3CCN(C(=O)OC(C)(C)C)CC3)c(F)c2)C(=O)O1
16,275 to 276,O=C1Nc2ccc([N+](=O)[O-])cc2C2(c3ccccc3)OCCN12 (stereo not drawn)
17,179,CCN1C(C(=O)OC)=C(O)c2ccc3ccccc3c2S1(=O)=O
18,143 to 144,CCOC(=O)Cc1ccc(Nc2ccnc(Nc3cc(OC)c(OC)c(OC)c3)n2)cc1
19,180 to 182,Cc1cc(N2CCN(c3c(C)c(C)c4c(c3C)CC(C)(C)O4)CC2)n2nccc2n1
20,133 to 135,CNC(=O)COC(=O)N1CCN(CCc2ccc3ccccc3c2)CC1
21,150,CCOC(=O)C1=C(C)NC(N=CN(C)C)=C(C(=O)OCC)C1c1cccc([N+](=O)[O-])c1 (stereo not drawn)
22,82 to 83,COc1cc(CC(=O)NCCOCc2ccc(C)c(C)c2)ccc1O
